Results taken from patent US8592422B2, “Bicyclic triazole and pyrazole lactams as allosteric modulators of mGluR5 receptors” (Vanderbilt University, priority 2010, dated 2013).
Where two headings read alike, the source gives them in different places.

Biological target: T1, human mGluR5a receptor (Homo sapiens, UniProt P41594)
T1 construct: cDNA subcloned into pcDNA3.1(-)
Experiment: Cell-based functional Ca2+ mobilization assay (FDSS), potentiation of glutamate EC20 response
Settings: for pEC50 / EC50: HEK cells transfected with human mGluR5 (H10H or H12H), in presence of EC20 glutamate; for Emax (%) / Emax: maximum % effect in concentration-response curve, as percent of response to maximally effective glutamate
In short: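 HEK293A cells stably expressing human mGluR5a (H10H or H12H clones), plated overnight in glutamate-glutamine-free medium, loaded with Ca2+-sensitive dye (e.g. Fluo-4) and read on FDSS.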

T1 sequence (P41594 21-1180 isoform P41594-2 limits assumed): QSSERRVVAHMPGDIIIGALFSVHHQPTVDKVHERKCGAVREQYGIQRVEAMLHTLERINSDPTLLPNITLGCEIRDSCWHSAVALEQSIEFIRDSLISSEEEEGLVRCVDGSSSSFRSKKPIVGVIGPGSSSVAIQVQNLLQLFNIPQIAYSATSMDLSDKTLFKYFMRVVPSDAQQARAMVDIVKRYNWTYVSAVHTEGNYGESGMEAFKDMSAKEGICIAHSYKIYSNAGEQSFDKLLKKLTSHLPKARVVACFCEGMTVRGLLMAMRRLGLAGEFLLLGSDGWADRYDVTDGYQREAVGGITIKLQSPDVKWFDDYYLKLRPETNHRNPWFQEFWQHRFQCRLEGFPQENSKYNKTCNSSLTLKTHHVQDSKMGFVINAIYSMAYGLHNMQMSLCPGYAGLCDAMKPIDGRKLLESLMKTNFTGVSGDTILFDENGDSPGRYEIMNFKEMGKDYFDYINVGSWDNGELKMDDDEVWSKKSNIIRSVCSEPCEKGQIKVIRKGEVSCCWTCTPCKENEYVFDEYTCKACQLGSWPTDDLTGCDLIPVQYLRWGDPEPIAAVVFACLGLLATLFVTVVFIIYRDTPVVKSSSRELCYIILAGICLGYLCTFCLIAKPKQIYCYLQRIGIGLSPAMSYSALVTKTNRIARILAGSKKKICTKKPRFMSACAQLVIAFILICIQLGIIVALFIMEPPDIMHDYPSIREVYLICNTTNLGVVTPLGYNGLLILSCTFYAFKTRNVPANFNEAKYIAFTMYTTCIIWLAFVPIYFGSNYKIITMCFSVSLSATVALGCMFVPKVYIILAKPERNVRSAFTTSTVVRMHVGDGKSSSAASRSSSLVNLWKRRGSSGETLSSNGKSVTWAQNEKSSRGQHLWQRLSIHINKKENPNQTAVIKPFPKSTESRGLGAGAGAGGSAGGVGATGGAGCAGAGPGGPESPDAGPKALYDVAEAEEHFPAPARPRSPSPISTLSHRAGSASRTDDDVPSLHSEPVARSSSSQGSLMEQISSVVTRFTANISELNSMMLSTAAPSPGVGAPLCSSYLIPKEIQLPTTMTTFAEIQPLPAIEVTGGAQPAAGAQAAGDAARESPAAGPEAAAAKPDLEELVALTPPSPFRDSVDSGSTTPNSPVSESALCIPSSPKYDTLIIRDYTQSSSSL

Row | SMILES | pEC50 | EC50 (read-out: EC50) [nM] | Emax (%) | Emax [%] | EC50 (read-out: pEC50 (converted)) [nM]
1 | COCC1Cn2nc(COc3ccccc3)cc2C(=O)N1c1ccc(F)cc1 (stereo not drawn) [Example 267] | 6.03 | 933 | 70 | – | –
2 | O=C1c2cc(COc3ccccc3)nn2CC(CO)N1c1ccc(F)cc1 (stereo not drawn) [Example 268] | <5.00 | > 10000 | 27 | – | –
3 | O=C1c2cc(COc3ccccc3)nn2CC(CF)N1c1ccc(F)cc1 (stereo not drawn) [Example 269] | 6.16 | 692 | 58 | – | –
4 | COC[C@@H]1Cn2nc(COc3ccccc3)cc2C(=O)N1c1ccc(F)cc1 [Example 270] | – | > 10000 | – | 39 | –
5 | O=C1c2cc(COc3ccccc3)nn2CCN1c1cccc(C2CCOCC2)n1 [Example 274] | 5.59 | 2570 | 65 | – | –
6 | O=C1c2cc(COc3ccccc3)nn2CCN1c1cccc(C2CCNCC2)n1 [Example 275] | <4.52 | > 30200 | 36 | – | –
7 | CN(C)c1ccnc(N2CCn3nc(COc4ccccc4)cc3C2=O)n1 [Example 276] | 5.90 | 1260 | 68 | – | –
8 | CNc1ccnc(N2CCn3nc(COc4ccccc4)cc3C2=O)n1 [Example 277] | 6.03 | 933 | 63 | – | –
9 | CNc1cccc(N2CCn3nc(COc4ccccc4)cc3C2=O)n1 [Example 278] | – | 275 | – | 56 | –
10 | O=C1c2cc(COc3ccccc3)nn2CCN1c1cccc(N2CCCC2)n1 [Example 281] | 6.58 | 263 | 68 | – | –
11 | CN(C)c1ccc(F)c(N2CCn3nc(COc4ccccc4)cc3C2=O)n1 [Example 283] | 7.39 | 41 | 77 | – | –
12 | CN(C)c1ccc(N2CCn3nc(COc4ccccc4)cc3C2=O)nn1 [Example 284] | 5.55 | 2820 | 53 | – | –
13 | Nc1cccc(N2CCn3nc(COc4ccccc4)cc3C2=O)n1 [Example 285] | 6.13 | 741 | 68 | – | –
14 | CN(C)c1nccnc1N1CCn2nc(COc3ccccc3)cc2C1=O [Example 288] | 6.40 | 398 | 69 | – | –
15 | CN(C)c1cccnc1N1CCn2nc(COc3ccccc3)cc2C1=O [Example 289] | – | 1200 | – | 65 | –
16 | Cc1cc(N(C)C)nc(N2CCn3nc(COc4ccccc4)cc3C2=O)c1 [Example 290] | 7.33 | 47 | 56 | – | –
17 | Cc1ccc(N2CCn3nc(COc4ccccc4)cc3C2=O)nc1N(C)C [Example 292] | 7.47 | 34 | 66 | – | –
18 | COc1nc(N2CCn3nc(COc4ccccc4)cc3C2=O)ncc1Cl [Example 295] | 7.56 | 28 | 69 | – | –
19 | COc1cc(N2CCn3nc(COc4ccccc4)cc3C2=O)nnc1Cl [Example 296] | – | 620 | – | 50 | –
20 | COc1ncc(C)cc1N1CCn2nc(COc3ccccc3)cc2C1=O [Example 298] | 6.58 | 260 | 73 | – | –
21 | COc1ccc(N2CCn3nc(COc4ccccc4)cc3C2=O)nc1OC [Example 301] | 7.02 | 96 | 58 | – | –
22 | COCc1cc(F)ccc1N1CCn2nc(COc3ccccc3)cc2C1=O [Example 304] | 6.72 | 190 | 77 | – | –
23 | CN(C)c1nc(N2CCn3nc(COc4ccccc4)cc3C2=O)ccc1F [Example 305] | 7.40 | 40 | 71 | – | –
24 | CNc1cccc(OCc2cc3n(n2)CCN(c2ccc(F)cc2)C3=O)n1 [Example 311] | <4.52 | > 30200 | 28 | – | –

Row | SMILES | pEC50 | EC50 (read-out: EC50) [nM] | Emax (%) | Emax [%] | EC50 (read-out: pEC50 (converted)) [nM]
25 | CN(C)c1cccc(N2CCn3nc(COc4ccccn4)cc3C2=O)n1 [Example 313] | 6.75 | 178 | 74 | – | –
26 | CN(C)c1ccc(F)c(N2CCn3nc(COc4ccccn4)cc3C2=O)n1 [Example 314] | 6.69 | 204 | 70 | – | –
27 | CN(C)c1cccc(N2CCn3nc(COc4ccc(F)cc4)cc3C2=O)n1 [Example 317] | 7.38 | 42 | 66 | – | –
28 | Cn1cc(N2CCn3nc(COc4ccccc4)cc3C2=O)cn1 [Example 320] | <5.00 | > 10000 | 61 | – | –
29 | Cc1[nH]ncc1N1CCn2nc(COc3ccccc3)cc2C1=O [Example 322] | <5.00 | > 10000 | 44 | – | –
30 | O=C1c2cc(COc3ccccc3)nn2CCN1c1nc2ccccc2o1 [Example 324] | 7.24 | 58 | 71 | – | –
31 | COc1cc(N2CCn3nc(COc4ccccc4)cc3C2=O)ncn1 [Example 351] | 6.59 | 260 | 66 | – | –
32 | Cn1cncc1N1CCn2nc(COc3ccccc3)cc2C1=O [Example 352] | <5.00 | > 10000 | 55 | – | –
33 | O=C1c2cc(COc3ccccc3)nn2CCN1c1cccc(=O)[nH]1 [Example 359] | – | 420 | – | 64 | –
34 | O=C1c2cc(COc3ccccc3)nn2CCN1c1ccc2cccnc2c1 [Example 360] | – | 190 | – | 66 | –
35 | O=C1c2cc(COc3ccccc3)nn2CCN1c1ccc2scnc2c1 [Example 361] | 7.14 | 72 | 66 | – | –
36 | O=C1c2cc(COc3ccccc3)nn2CCN1c1cnc2ccccc2c1 [Example 362] | – | 54 | – | 71 | –
37 | O=C1c2cc(COc3ccccc3)nn2CCN1c1ccc2ncncc2c1 [Example 363] | – | 1300 | – | 65 | –
38 | O=C1c2cc(COc3ccccc3)nn2CCN1c1ccc2nccc(Cl)c2c1 [Example 364] | 7.34 | 46 | 75 | – | –
39 | O=C1c2cc(COc3ccccc3)nn2CCN1c1cccc(Cl)n1 [Example 365] | 7.40 | 40 | 73 | – | –
40 | Cn1cc2ccc(N3CCn4nc(COc5ccccc5)cc4C3=O)cc2n1 [Example 366] | 6.07 | 850 | 62 | – | –
41 | Cc1nc2cc(N3CCn4nc(COc5ccccc5)cc4C3=O)ccc2s1 [Example 367] | 7.06 | 88 | 60 | – | –
42 | O=C1c2cc(COc3ccccc3)nn2CCN1c1ccc(F)c2ccccc12 [Example 368] | – | – | – | 69 | 12.9
43 | Cc1ccc2ccc(N3CCn4nc(COc5ccccc5)cc4C3=O)cc2n1 [Example 369] | 6.64 | 230 | 68 | – | –
44 | O=C1c2cc(COc3ccccc3)nn2CCN1c1cnc2cccnn12 [Example 370] | – | 1100 | – | 68 | –
45 | O=C1c2cc(COc3ccccc3)nn2CCN1c1ccc2nsnc2c1 [Example 371] | 7.49 | 32 | 68 | – | –
46 | O=C1c2cc(COc3ccccc3)nn2CCN1c1cc(F)cc2cccnc12 [Example 372] | – | 130 | – | 67 | –
47 | O=C1c2cc(COc3ccccc3)nn2CCN1c1ccc2nccnc2n1 [Example 373] | – | > 10000 | – | 55 | –
